Measured values from patent US8906909B2 (Curis, Inc., priority 2009, dated 2014).

Legend:
[1] = tested on: HDACs (HeLa cell nuclear extracts); assay: HDAC enzymatic activity, Biomol Color de Lys system; format: biochemical
Method in brief: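 IC50 from sigmoidal dose-response fits of fluorescence (Ex 350–380, Em 440–460 nm). Compounds in DMSO dilution series incubated 1 h at 25 °C with HeLa nuclear extract HDACs and colorimetric substrate, pH 8.0 Tris/Cl buffer with NaCl, KCl, MgCl2, before developer termination.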

Row | SMILES | melting point [°C] | IC50 [1] [nM]
1 | CCOc1ccc(-c2nc(N3CCOCC3)c3sc(CN(C)c4ncc(C(=O)NO)cn4)cc3n2)cn1 [Compound 255, 2-(((2-(6-ethoxypyridin-3-yl)-4-morpholinothieno[3,2-d]pyrimidin-6-yl)methyl)(methyl)amino)-N-hydroxypyrimidine-5-carboxamide] | 162 to 165 | < 100
2 | CN(Cc1cc2nc(-c3ccc(OCCO)nc3)nc(N3CCOCC3)c2s1)c1ncc(C(=O)NO)cn1 [Compound 256, N-Hydroxy-2-(((2-(6-(2-hydroxyethoxy)pyridin-3-yl)-4-morpholinothieno[3,2-d]pyrimidin-6-yl)methyl)(methyl)amino)pyrimidine-5-carboxamide] | 143 to 145 | < 100
3 | CN(C)CCOc1ccc(-c2nc(N3CCOCC3)c3sc(CN(C)c4ncc(C(=O)NO)cn4)cc3n2)cn1 [Compound 257, 2-(((2-(6-(2-(Dimethylamino)ethoxy)pyridin-3-yl)-4-morpholinothieno[3,2-d]pyrimidin-6-yl)methyl)(methyl)amino)-N-hydroxypyrimidine-5-carboxamide] | 140 to 143 | < 100
4 | CNCCOc1ccc(-c2nc(N3CCOCC3)c3sc(CN(C)c4ncc(C(=O)NO)cn4)cc3n2)cn1 [Compound 258, N-Hydroxy-2-(methyl((2-(6-(2-(methylamino)ethoxy)pyridin-3-yl)-4-morpholinothieno[3,2-d]pyrimidin-6-yl)methyl)amino)pyrimidine-5-carboxamide] | 170 to 175 | < 100
5 | CN(Cc1cc2nc(-c3ccc(OCCN)nc3)nc(N3CCOCC3)c2s1)c1ncc(C(=O)NO)cn1 [Compound 259, 2-(((2-(6-(2-Aminoethoxy)pyridin-3-yl)-4-morpholinothieno[3,2-d]pyrimidin-6-yl)methyl)(methyl)amino)-N-hydroxypyrimidine-5-carboxamide] | 110 to 115 | < 100
6 | COc1ncc(-c2nc(N3CCOCC3)c3sc(C(C)N(C)c4ncc(C(=O)NO)cn4)cc3n2)cn1 (centres unmarked) [Compound 262, N-Hydroxy-2-((1-(2-(2-methoxypyrimidin-5-yl)-4-morpholinothieno[3,2-d]pyrimidin-6-yl)ethyl)(methyl)amino)pyrimidine-5-carboxamide] | 210 to 215 | < 100
7 | COc1ncc(-c2nc(N3CCOCC3)c3sc(C(C)(C)Nc4ncc(C(=O)NO)cn4)cc3n2)cn1 [Compound 263, N-Hydroxy-2-(2-(2-(2-methoxypyrimidin-5-yl)-4-morpholinothieno[3,2-d]pyrimidin-6-yl)propan-2-ylamino)pyrimidine-5-carboxamide] | 202 to 207 | < 100
8 | Nc1ccc(-c2nc(N3CCOCC3)c3sc(S(=O)(=O)Nc4ncc(C(=O)NO)cn4)cc3n2)cc1 [Compound 271, 2-[2-(4-Amino-phenyl)-4-morpholin-4-yl-thieno[3,2-d]pyrimidine-6-sulfonylamino]-pyrimidine-5-carboxylic acid hydroxyamide] | 197 to 205 | < 100
9 | CN(Cc1cc2nc(-c3ccc(N)c(Cl)c3)nc(N3CCOCC3)c2s1)c1ncc(C(=O)NO)cn1 [Compound 275, 2-(((2-(4-Amino-3-chlorophenyl)-4-morpholinothieno[3,2-d]pyrimidin-6-yl)methyl)(methyl)amino)-N-hydroxypyrimidine-5-carboxamide] | 241 to 246 | < 100
10 | CN(Cc1cc2nc(-c3ccc(N)c(F)c3)nc(N3CCOCC3)c2s1)c1ncc(C(=O)NO)cn1 [Compound 276, 2-(((2-(4-Amino-3-fluorophenyl)-4-morpholinothieno[3,2-d]pyrimidin-6-yl)methyl)(methyl)amino)-N-hydroxypyrimidine-5-carboxamide] | 203 to 206 | < 100
11 | CN(Cc1cc2nc(-c3ccc(N)c([N+](=O)[O-])c3)nc(N3CCOCC3)c2s1)c1ncc(C(=O)NO)cn1 [Compound 278, 2-(((2-(4-Amino-3-nitrophenyl)-4-morpholinothieno[3,2-d]pyrimidin-6-yl)methyl)(methyl)amino)-N-hydroxypyrimidine-5-carboxamide] | 202 to 206 | < 100
12 | CN(Cc1cc2nc(-c3ccc(N)c(O)c3)nc(N3CCOCC3)c2s1)c1ncc(C(=O)NO)cn1 [Compound 279, 2-(((2-(4-Amino-3-hydroxyphenyl)-4-morpholinothieno[3,2-d]pyrimidin-6-yl)methyl)(methyl)amino)-N-hydroxypyrimidine-5-carboxamide] | 214 to 218 | < 100
13 | CN(Cc1cc2nc(-c3ccc(N)c(C#N)c3)nc(N3CCOCC3)c2s1)c1ncc(C(=O)NO)cn1 [Compound 280, 2-(((2-(4-Amino-3-cyanophenyl)-4-morpholinothieno[3,2-d]pyrimidin-6-yl)methyl)(methyl)amino)-N-hydroxypyrimidine-5-carboxamide] | 237 to 240 | < 100
14 | CC(=O)c1cc(-c2nc(N3CCOCC3)c3sc(CN(C)c4ncc(C(=O)NO)cn4)cc3n2)ccc1N [Compound 281, 2-{[2-(3-Acetyl-4-amino-phenyl)-4-morpholin-4-yl-thieno[3,2-d]pyrimidin-6-ylmethyl]-methyl-amino}-pyrimidine-5-carboxylic acid hydroxyamide] | 156 to 158 | < 100
15 | CN(Cc1cc2nc(-c3cc(F)c(N)c(F)c3)nc(N3CCOCC3)c2s1)c1ncc(C(=O)NO)cn1 [Compound 282, 2-(((2-(4-Amino-3,5-difluorophenyl)-4-morpholinothieno[3,2-d]pyrimidin-6-yl)methyl)(methyl)amino)-N-hydroxypyrimidine-5-carboxamide] | 190 to 193 | < 100
16 | CN(Cc1cc2nc(-c3ccc(N)c(CO)c3)nc(N3CCOCC3)c2s1)c1ncc(C(=O)NO)cn1 [Compound 285, 2-(((2-(4-Amino-3-(hydroxymethyl)phenyl)-4-morpholinothieno[3,2-d]pyrimidin-6-yl)methyl)(methyl)amino)-N-hydroxypyrimidine-5-carboxamide] | 195 to 200 | < 100
17 | CN(Cc1cc2nc(-c3cccc(SCCO)c3)nc(N3CCOCC3)c2s1)c1ncc(C(=O)NO)cn1 [Compound 290, N-Hydroxy-2-(((2-(3-(2-hydroxyethylthio)phenyl)-4-morpholinothieno[3,2-d]pyrimidin-6-yl)methyl)(methyl)amino)pyrimidine-5-carboxamide] | 188 to 192 | < 100
18 | CC(O)c1ccc(F)c(-c2nc(N3CCOCC3)c3sc(CN(C)c4ncc(C(=O)NO)cn4)cc3n2)c1 (centres unmarked) [Compound 295, 2-(((2-(2-Fluoro-5-(1-hydroxyethyl)phenyl)-4-morpholinothieno[3,2-d]pyrimidin-6-yl)methyl)(methyl)amino)-N-hydroxypyrimidine-5-carboxamide] | 230 to 235 | < 100
19 | C[C@@H](O)c1cccc(-c2nc(N3CCOCC3)c3sc(CN(C)c4ncc(C(=O)NO)cn4)cc3n2)c1 [Compound 297, (R)—N-Hydroxy-2-(((2-(3-(1-hydroxyethyl)phenyl)-4-morpholinothieno[3,2-d]pyrimidin-6-yl)methyl)(methyl)amino)pyrimidine-5-carboxamide] | 169 to 173 | < 100
